Measurements published in patent US20030082194A1, “Compositions and methods for diagnosis and therapy of malignant mesothelioma” (priority 2000, published 2003).

Legend:
[1] = system: mouse B6 class I antigens (D^b or K^b molecules on RMA-S cells); assay: Peptide binding to C57Bl/6 murine MHC on RMA-S cells, flow cytometry (Tables 48, 49); format: cell-based
Description: In brief, RMA-S cells were cultured for 7 hrs at 26° C. in complete medium supplemented with 1% FCS. A total of […] RMA-S cells were added into each well of a 24-well plate and incubated either alone or with the designated peptide (25 μg/ml) for 16 hrs at 26° C. and additional 3 hrs at 37° C. in complete medium. Cells were then washed three times and stained with fluorescein isothiocyanate-conjugated anti Db or anti-Kb antibody (PharMingen, San Diego, CA). Labeled cells were washed twice, resuspended and fixed in 500 μl of PBS with 1% paraformaldehyde and analyzed for fluorescence intensity in a flow cytometer (Becton-Dickinson FACSCalibur®). The percentage of increase of D^b or K^b molecules on the surface of the RMA-S cells was measured by increased mean fluorescent intensity of cells incubated with peptide compared with that of cells incubated in medium alone.

[2] = system: targets incubated with WT1 peptides (EL-4); assay: CTL chromium release assay, peptide-incubated targets; format: cell-based, mouse; conditions: for generation of peptide specific CTL following immunization: mice immunized with peptide, spleen cells stimulated in vitro, chromium release; for lysis of targets incubated with the relevant peptide by peptide specific CTL: chromium release assay
Description: (§1) Following immunization, spleen cells were stimulated in vitro and tested for the ability to lyse targets incubated with WT1 peptides. CTL were evaluated with a standard chromium release assay (Chen et al., 1994). […] target cells were incubated at 37° C. with 150 μCi of sodium ^51Cr for 90 min., in the presence or absence of specific peptides. Cells were washed three times and resuspended in RPMI with 5% fetal bovine serum. For the assay, 10^4 51Cr-labeled target cells were incubated with different concentrations of effector cells in a final volume of 200 μl in U-bottomed 96-well plates. Supernatants were removed after 4-7 hrs at 37° C., and the percentage specific lysis was determined by the formula:
(§2) % Specific lysis=100×(experimental release−spontaneous release)/(maximum release-spontaneous release).
(§3) P117-139, a peptide with motifs appropriate for binding to class I and class II MHC, was identified as described above using TSITES and BIMAS HLA peptide binding prediction analyses. Mice were immunized as described in Example 3. Following immunization, spleen cells were stimulated in vitro and tested for the ability to lyse targets incubated with WT1 peptides, as well as WT1 positive and negative tumor cells. CTL were evaluated with a standard chromium release assay.
Following immunization, spleen cells were stimulated in vitro with each of the 4 peptides and tested for ability to lyse targets incubated with WT1 peptides.

[3] = system: WT1 positive tumor cell lines (TRAMP-C, BLK-SV40); assay: CTL chromium release assay, WT1 positive tumor cell lines; format: cell-based, mouse
Description: as §1, §2
as §3, with “assay. […]” for “assay.”

[4] = system: T cells / spleen cells of immunized B6 mice; assay: Proliferative T cell response, thymidine incorporation assay after immunization of B6 mice with WT1 peptides; format: cell-based, mouse; conditions: for stimulation index (SI), proliferative T cell response: B6 mice immunized with WT1 peptides, thymidine incorporation, FIG. 3
WT1 = assay: Immunogenicity of WT1 protein immunization with MPL-SE, multiple dose titration in mice (Table 51); format: in vivo, mouse; conditions: MPL-SE adjuvant; doses 25 μg, 100 μg to 1000μg WT1 protein; female C57/B6 mice
Excerpt: (§4) The purpose of this example is to analyze the immunogenicity and potential systemic histopathological and toxicological effects of WT1 protein immunization in a multiple dose titration in mice.
(§5) The experimental design for immunization of mice with WT1 protein is outlined in Table 51.

[5] = Systemic histopathological and toxicological effects of WT1 protein immunization in mice; format: in vivo, mouse
Excerpt: as §4, §5
Special emphasis was put on evaluation of potential hematopoietic toxicity. The myeloid/erythroid ratio in sternum and femur marrow was normal.

[6] = even on an outpatient basis; cited from earlier work
[7] = target: Mouse B6 (C57Bl/6) MHC class I antigens on RMA-S cells (D^b or K^b) (mouse (C57Bl/6)); assay: binding of 9-mer peptide to mouse B6 (H-2b) class I; RMA-S stabilisation assay as in Example 4
[8] = target: Mouse B6 (C57Bl/6) MHC class I antigens on RMA-S cells (D^b or K^b) (mouse (C57Bl/6)); assay: RMA-S MHC stabilisation, peptide 25 ug/ml, FITC anti-Db or anti-Kb, flow cytometry (MFI increase over medium alone)
[9] = peptide 25 μg/ml, percentage of increase of Db or Kb molecules (mean fluorescent intensity) vs medium alone, Table 48
[10] = 9-mer peptides within p117-139, mouse B6 class I antigens, Table 49
[11] = mice immunized with WT1 protein

ALLPAVPSL (listed as Homo sapiens) [SEQ ID NO:34]
Binding Affinity to Mouse MHC Class I [1, 9]: 2.2% | generation of peptide specific CTL following immunization [2]: peptide specific CTL lines were generated

CMTWNQMNL (listed as Homo sapiens, listed as Mus musculus) [SEQ ID NO:49]
Binding Affinity to Mouse MHC Class I [1, 9]: 33.6% | lysis of targets incubated with the relevant peptide by peptide specific CTL [2]: lysed targets incubated with the p235-243 peptides | generation of peptide specific CTL following immunization ([2]; listed as p235-243): peptide specific CTL lines were generated | lysis of WT1 positive tumor cells by peptide specific CTL [3]: failed to lyse cell lines that expressed WT1 proteins

GATLKGVAAGSSSSVKWTE (listed as Homo sapiens) [p244-262]
stimulation indices (SI), proliferative T cell responses to the immunizing peptides ([4]; Vaccine A, bulk lines, peptide 25 μg/ml, 96 hr, FIG. 4A): No proliferative response

NAPYLPSCL (listed as Homo sapiens) [SEQ ID NO:144]
Binding Affinity to Mouse MHC Class I [1, 10]: 79% | binding to H-2b class I molecules / class I MHC molecules ([1]; peptide 25 μg/ml): shown to bind to H-2b class I molecules | lysis of targets incubated with 9-mer peptide by CTL generated by immunization with p117-139 ([2]; FIG. 10A): lysed | lysis of targets incubated with the relevant peptide by peptide specific CTL [2]: demonstrated peptide specific lysis | lysis of WT1 positive tumor cells by peptide specific CTL [3]: showed lysis of a WT1 positive tumor cell line

NLYQMTSQL (listed as Homo sapiens) [SEQ ID NO:147]
Binding Affinity to Mouse MHC Class I [1, 9]: 5.8%

P117-125 (PSQASSGQA) [Peptide P117-125]
Binding Affinity to Mouse MHC Class I [1, 10]: 2%

P118-126 (SQASSGQAR) [Peptide P118-126]
Binding Affinity to Mouse MHC Class I [1, 10]: 2%

P119-127 (QASSGQARM) [Peptide P119-127]
Binding Affinity to Mouse MHC Class I [1, 10]: 2%

P120-128 (ASSGQARMF) [Peptide P120-128]
Binding Affinity to Mouse MHC Class I [1, 10]: 1%

P121-129 (SSGQARMFP) [Peptide P121-129]
Binding Affinity to Mouse MHC Class I [1, 10]: 1%

P124-132 (QARMFPNAP) [Peptide P124-132]
Binding Affinity to Mouse MHC Class I [1, 10]: 1%

P125-133 (ARMFPNAPY) [Peptide P125-133]
Binding Affinity to Mouse MHC Class I [1, 10]: 1%

P127-135 (MFPNAPYLP) [Peptide P127-135]
Binding Affinity to Mouse MHC Class I [1, 10]: 2%

P128-136 (FPNAPYLPS) [Peptide P128-136]
Binding Affinity to Mouse MHC Class I [1, 10]: 1%

P129-137 (PNAPYLPSC) [Peptide P129-137]
Binding Affinity to Mouse MHC Class I [1, 10]: 1%

P131-139 (APYLPSCLE) [Peptide P131-139]
Binding Affinity to Mouse MHC Class I [1, 10]: 1%

RDLNALLPAVPSLGGGG (listed as Homo sapiens) [p6-22]
stimulation index (SI), proliferative T cell response [4]: 2.3 | proliferation of Vaccine A specific T cell line after single peptide in vitro stimulation ([4]; FIG. 5A, 5C): proliferation to p6-22 with no response to p117-139

SCLESQPAI (listed as Homo sapiens) [SEQ ID NO:198]
Binding Affinity to Mouse MHC Class I [1, 9]: 52% | generation of peptide specific CTL following immunization [2]: peptide specific CTL lines were generated

VRRVSGVAPTLVRS (listed as Mus musculus) [P299-313]
stimulation index (SI), proliferative T cell response [4]: 3.3

WT1 protein: WT1 protein used for vaccination of mice with MPL-SE as adjuvant
WT1-specific antibody response (WT1): elicited a strong WT1-specific antibody response | cellular T-cell responses (WT1): cellular T-cell responses | histological evidence for toxicity in tissues ([5]; adrenal gland, brain, colon, heart, kidney, liver, lung, marrow, spleen and other listed tissues): No histological evidence for toxicity | blood cell counts and blood chemistry (BUN, creatinine, bilirubin, albumin, globulin) [5, 11]: within the normal range | myeloid/erythroid ratio in sternum and femur marrow [5, 11]: normal | systemic histopathological or toxicological effects of immunization ([5]; mice, multiple dose titration): No systemic histopathological or toxicological effects

monophosphoryl lipid A [MPL]
dose known to be safe for human use [6]: 100 μg/m^2

p221-229 (YSSDNLYQM)
Binding Affinity to Mouse MHC Class I [1, 9]: 0.8%

p228-236 (QMTSQLECM)
Binding Affinity to Mouse MHC Class I [1, 9]: 1.2%

p329-337 (GCNKRYFKL)
Binding Affinity to Mouse MHC Class I [1, 9]: 1.2%

FPNAPYLPS [WT1 peptide P128-136 (…)]
Binding Affinity to Mouse MHC Class I (%) [7]: 1%

YSSDNLYQM [WT1 peptide p221-229 (…)]
Binding Affinity to Mouse MHC Class I (% increase of Db or Kb on RMA-S cells) [8]: 0.8%

APYLPSCLE [WT1 peptide P131-139 (…)]
Binding Affinity to Mouse MHC Class I (%) [7]: 1%

GCNKRYFKL [WT1 peptide p329-337 (…)]
Binding Affinity to Mouse MHC Class I (% increase of Db or Kb on RMA-S cells) [8]: 1.2%

CMTWNQMNL [WT1 peptide p235-243 (…)]
Binding Affinity to Mouse MHC Class I (% increase of Db or Kb on RMA-S cells) [8]: 33.6%

PSQASSGQA [WT1 peptide P117-125 (…)]
Binding Affinity to Mouse MHC Class I (%) [7]: 2%

NLYQMTSQL [WT1 peptide p225-233 (…)]
Binding Affinity to Mouse MHC Class I (% increase of Db or Kb on RMA-S cells) [8]: 5.8%

QARMFPNAP [WT1 peptide P124-132 (…)]
Binding Affinity to Mouse MHC Class I (%) [7]: 1%

SSGQARMFP [WT1 peptide P121-129 (…)]
Binding Affinity to Mouse MHC Class I (%) [7]: 1%

PNAPYLPSC [WT1 peptide P129-137 (…)]
Binding Affinity to Mouse MHC Class I (%) [7]: 1%

ALLPAVPSL [WT1 peptide human p10-18 (…)]
Binding Affinity to Mouse MHC Class I (% increase of Db or Kb on RMA-S cells) [8]: 2.2%

NAPYLPSCL [WT1 peptide P130-138 (…)]
Binding Affinity to Mouse MHC Class I (%) [7]: 79%

ASSGQARMF [WT1 peptide P120-128 (…)]
Binding Affinity to Mouse MHC Class I (%) [7]: 1%

ARMFPNAPY [WT1 peptide P125-133 (…)]
Binding Affinity to Mouse MHC Class I (%) [7]: 1%

QMTSQLECM [WT1 peptide p228-236 (…)]
Binding Affinity to Mouse MHC Class I (% increase of Db or Kb on RMA-S cells) [8]: 1.2%

SCLESQPAI [WT1 peptide human p136-144 (…)]
Binding Affinity to Mouse MHC Class I (% increase of Db or Kb on RMA-S cells) [8]: 52%

MFPNAPYLP [WT1 peptide P127-135 (…)]
Binding Affinity to Mouse MHC Class I (%) [7]: 2%

SQASSGQAR [WT1 peptide P118-126 (…)]
Binding Affinity to Mouse MHC Class I (%) [7]: 2%

QASSGQARM [WT1 peptide P119-127 (…)]
Binding Affinity to Mouse MHC Class I (%) [7]: 2%
